Results taken from patent US20220106547A1, “COMPOSITIONS AND METHODS OF USING PARTIAL GEL LAYERS IN A MICROFLUIDIC DEVICE” (Emulate, Inc., priority 2019, published 2022).

Experiments:
[1] = tested on: mucociliary bronchiolar epithelium (hAECs); experiment: Effect of IL-13 on goblet cells and cilia beating frequency in Airway Chip; assay type: cell-based, human; settings: IL-13 100 ng/mL, 7 days
Procedure: Cilia beating frequency (CBF) was measured by applying Fourier spectral analysis to high-speed video recordings of the ciliated surfaces. Using an inverted phase contrast microscope, the ciliated surfaces were recorded at 190-200 frames per second and at a resolution of 512 by 512 pixels, which corresponded to a field of view of 166 by 166 μm^2 (0.32 μm per pixel). Cilia beating was recorded at multiple randomly chosen fields of view (FOV) for each chip.
A first step of video processing was to identify regions of ciliary beating by computing a normalized standard deviation of an intensity value for each pixel across all frames. […] FIG. 104A-B.
In a further step, areas with ciliary motion were thresholded and the movie field of view was divided into 289 windows (ca. 10×10 μm^2 in size). For each window, a random set comprising 70% of all pixels with detected motion was further analyzed to detect the dominant beat frequency. For each sampled pixel, ciliary beat frequency was determined from a time-dependent fluctuation of pixel brightness reflecting the periodicities of the ciliary movement. A bandwidth filter (e.g., approximately 1 to 30 Hz) was applied to each pixel signal to remove noise. […] Thus, for each FOV, the number of measured CBFs was determined by the number of windows with usable signals (e.g., 289 windows). […]

[2] = tested on: human neutrophils; experiment: Neutrophil recruitment/adhesion in HRV infected Airway Chips; assay type: cell-based
Source text: In one embodiment, the present invention contemplates a method for reducing neutrophil adhesion using an IL-13 inhibitor. In one embodiment, the IL-13 inhibitor is a CXCR2 antagonist. In one embodiment, the IL-13 inhibitor is MK-7123. In one embodiment, the neutrophil adhesion is reduced by approximately seventy-five (75) percent (%). In one embodiment, the IL-13 recruits neutrophils by approximately two-fold.
This response was accompanied by a reduction in neutrophil velocity. FIG. 95A, 95B. Also observed was a significant twofold increase in neutrophil recruited between HRV infected chips and infected chips in presence of IL-13 (953 vs 1999; p<0.001). FIG. 95A. […] FIG. 95C.

[3] = tested on: primary human hepatocytes; experiment: Oxidative stress (MitoSox ROS events) in Liver-Chip hepatocytes; assay type: cell-based; settings: 48 h exposure
Source text: Having shown that at least one embodiment of a Liver-Chip responds to alcohol, we explored the possibility of modeling the progression of ALD, as per the two- or one-hit and second-hit hypothesis, such that simple steatosis induced by alcohol requires a second hit (insult) for progression of ALD to ASH ref^69. Ethanol consumption in humans compromises the intestinal barrier function resulting in increased permeability to intestinal endotoxins, e.g. bacterial lipopolysaccharide (LPS), from the gut to the liver via the portal vein ref^18. Such a permeabalized leaky barrier is considered one of the “second hits” in the progression of ALD to inflammation (ASH) ref^70. Therefore, we tested whether exposure to ethanol and LPS together would worsen the Liver-Chip pathology.
Clinical data have shown the potential of the steatotic liver to repair the steatotic injury following timely abstinence from alcohol or with diet modifications ref^19. Thus, we assessed the responses of the “alcoholic” Liver-Chip to withdrawal from ethanol or ethanol+LPS. Treatment of the Liver-Chip for 48 h with ethanol or ethanol+LPS as above, was followed by a 5 day-long treatment-free “recovery” period. […]
Live cell staining. […] The stained chips were imaged using either an Olympus fluorescence microscope (IX83) or Zeiss confocal microscope (LSM880), and were de-blurred with Olympus cellSens software. […]

[4] = tested on: bile canaliculi network of primary human hepatocytes; experiment: Bile canaliculi (BC) network integrity, MRP-2 staining, Liver-Chip; assay type: cell-based; settings: 0.08% ethanol with or without LPS, 48 h
Source text: A Tri-culture configuration includes primary hepatocytes cultured in the upper channel and primary liver sinusoidal endothelial cells (LSECs) cultured on the opposite side of the membrane, i.e. in the lower channel, along with Kupffer cells. As this design recapitulates elements of the hepatic sinusoid microenvironment ref^17, we were interested in recreating the bile canaliculi (BC) network that is established between neighboring hepatocytes. […] The latter together with the lack of a reproducible, quantitative manner to assess the integrity of the BC network have precluded the use of this clinical endpoint in preclinical studies. […] Based on these findings, we assessed the impact of various ECM scaffold compositions and patterning methods on BC integrity by using quantitative metrics to describe the MRP-2 stained BC network topology (FIG. 82A-E: Table 8. […]
To assess the effect of each ECM protocol on BC network formation, we quantified the MRP-2 stained BC network topology (see method sections on IF staining and Image analysis for details). […]
For measuring bile canaliculi network properties, MRP-2 stained chips were imaged at 40× using a confocal point-scanning microscope (Zeiss LSM880, Airyscan). […] In each field of view, a z-stack was recorded and combined using maximal intensity projection in order to fully capture the bile canaliculi network. […]

[5] = tested on: primary human hepatocytes; settings: 48 hrs
Source text: To this purpose we used fluorometric assays for biochemical markers of liver function, including albumin, cholesterol, glucose, and glycogen (FIG. 77A-B).
Liver-Chip culture. Liver-Chip culture was established according to our previously published protocol^74. […] Extracellular matrix sandwiching and composition in the Liver-Chip was optimized to support BC integrity (FIG. 81A-B and method sections below). On the other side of the membrane (the lower chamber of the chip) human primary LSECs (3 million cells/mL) and KCs (0.5 million cells/mL) were seeded to mimic the hepatic sinusoid architecture (FIG. 76A). The two cell compartments were perfused independently, and flow rates were optimized to enable optimal survival and maturation of the different cell types ref^74. In the Quad Liver-Chip experiments, primary human hepatic stellate cells (50,000 cells/mL) were mixed within the collagen coating (FibriCol at 0.5 mg/ml concentration) and add to activated chips and let incubate overnight before hepatocytes seeding on the top of the collagen and HSC mix. The seeded hepatocytes were overlaid with ECM as described in FIG. 81A-B and below, and maintained in William's E Medium (WEM) containing Glutamax (Gibco), ITS+ (Corning), dexamethasone (Sigma-Aldrich), ascorbic acid (Sigma-Aldrich), fetal bovine serum (Sigma-Aldrich), and penicillin/streptomycin (Sigma-Aldrich), and incubated at 37° C., 5% CO2. The vascular channel of the Liver-Chip was maintained with human endothelial media (Emulate, Inc.). Two days after seeding, the Liver-Chips were connected to the Human Emulation System™ (Emulate, Inc.) and both chip channels were perfused at 30 μL/h to provide a continuous supply of fresh medium for the duration of the experiments. At day 5 in culture, the basal medium was modified to DMEM low glucose (1 g/L) supplemented with non-essential amino acids solution (NEAA, 1:200 dilution), glutaMAX (Thermo Fisher) ascorbic acid (Sigma-Aldrich) and penicillin/streptomycin (Sigma-Aldrich). Moreover, ITS+ premix (Corning) was replaced by ITS (GIBCO, 1:500 dilution) in order to achieve a more physiological relevant concentration of insulin, while the FBS supplement was removed. Treatment. […] The Liver-Chip was maintained for 48h in treatment medium and either assayed or allowed to recover for 5 days in basal medium. Optimization of Liver-Chip ECM for BC integrity. We iteratively modified the original ECM coating protocol^74 in order to improve BC formation. Five different combinations of ECM composition and deposition strategy were tested (FIG. 82B), where ECM-A denoted the original protocol. Briefly, for ECM-A, top and bottom channels were coated by incubating with 100 μg/mL rat tail collagen-I (Corning) and 25 μ/mL fibronectin (Gibco) overnight at 37° C. […]

[6] = tested on: primary human hepatocytes; settings: 0.08% and 0.16% pooled vs vehicle
[7] = tested on: primary human hepatocytes; experiment: Lipid droplet accumulation (AdipoRed) in ALD Liver-Chip; settings: ethanol 0.08% or 0.16%, oleic acid 1 μg/ml, up to 48 hrs
[8] = tested on: lung cells; experiment: Viability/differentiation biomarker scoring of airway chip culture conditions; assay type: cell-based; settings: airway S1 chip culture
Source text: In one embodiment, the present invention contemplates a method comprising scoring at least one cell biomarker and determining a viable and differentiated cell. For example, specific quantitative scores have been assigned to a set of cell biomarkers for viability and differentiation during chip cell culture maturation includes, but is not limited to, cell death (1), ciliation (2) cell attachment (3) cell movement/shape (4), cell overgrowth (5), cell invasion (6). See, FIG. 14.
As depicted, the score value increases as the viability/differentiation relevance of the cell biomarker decreases. In one embodiment, the cell death biomarker score value increases in proportion to increased cell death. In one embodiment, the ciliation biomarker score value increases in proportion to deceased ciliation. In one embodiment, the cell attachment biomarker score value increases in proportion to decreased cell attachment. In one embodiment, the cell movement/shape biomarker score value increases with decreased cell movement/shape. In one embodiment, the cell overgrowth biomarker score value increases with increased cell overgrowth. […]
Each coating can be seen to result in different score values that are independent of location in the cell culture device (e.g., Zoe). […] It is known that retinoic acid (RA) is readily absorbed by most microchip substrates. […]

Molecule: IL-13: Th2 cytokine IL-13
- reduction in cilia beating frequency [1]: 14.4%
- goblet cells, total area ([1]; 16.5% without IL-13): 50.3%
- neutrophil recruited ([2]; HRV infected chips in presence of IL-13, 953 in HRV infected chips alone): 1999

Molecule: CCO [ethanol]
- ROS events per nuclei [3]: dose-dependent increase in ROS events
- dilated BC (cholestatic) areas [4]: areas of markedly dilated BCs
- glycogen storage in cell lysates ([5]; 0.08% ethanol): trend for increase
- albumin release [5]: not affected
- cholesterol levels ([5]; human-relevant BACs, effluent and cell lysates): significant increase in cholesterol levels
- glucose release ([5]; except toxic concentrations above 0.32%): no changes were detected
- downregulated DE genes [6]: 36
- upregulated DE genes [6]: 87
- differentially expressed (DE) genes ([6]; adj. p<0.05, |log2FC|>1): 123
- steatosis (hepatic lipid accumulation) [7]: steatosis was induced

Molecule: Bovine Serum Albumin (BSA): membrane coating layer of bovine serum albumin
- cell viability and differentiation (scoring / morphological assessment) [8]: found to support the most viable and differentiated cells

Molecule: CCCCCCCC/C=C\CCCCCCCC(=O)O [oleic acid, reference compound]
- steatosis (hepatic lipid accumulation) [7]: steatosis was induced

Molecule: CC[C@@H](Nc1c(Nc2cccc(C(=O)N(C)C)c2O)c(=O)c1=O)c1ccc(C)o1 [MK-7123, reference compound]
- reduction of neutrophil adhesion ([2]; stated as embodiment, MK-7123 10 μM in FIG. 95): ~75%
